Measured values: ChEMBL document CHEMBL3399986, “Rapid 'one-pot' synthesis of a novel benzimidazole-5-carboxylate and its hydrazone derivatives as potential anti-inflammatory and antimicrobial agents” (Bioorg Med Chem Lett, 2015)
Values after ≈ are worked out from the molar mass of the structure shown.

Key:
Type in all cases: functional
Candida albicans [1] = assay: Antifungal activity against Candida albicans MTCC 461 assessed as zone of inhibition at 5 mg/ml after 24 hrs by agar well diffusion method; settings: MTCC 461, 24 h, read-out: IZ
Rattus norvegicus [2] = assay: Antiinflammatory activity in rat assessed as inhibition of carrageenan-induced paw edema administered 30 mins prior to carrageenan challenge measured after 2 hrs relative to control
Candida tropicalis [3] = assay: Antifungal activity against Candida tropicalis MTCC 183 assessed as zone of inhibition at 5 mg/ml after 24 hrs by agar well diffusion method; settings: MTCC 183, 24 h, read-out: IZ
Klebsiella pneumoniae [4] = assay: Antimicrobial activity against Klebsiella pneumoniae MTCC 3384 assessed as zone of inhibition at 5 mg/ml after 24 hrs by agar well diffusion method; settings: MTCC 3384, 24 h, read-out: IZ
Escherichia coli [5] = assay: Antimicrobial activity against Escherichia coli MTCC 4351 assessed as zone of inhibition at 5 mg/ml after 24 hrs by agar well diffusion method; settings: MTCC 4351, 24 h, read-out: IZ
Escherichia coli [6] = assay: Antimicrobial activity against Escherichia coli MTCC 4351 after 24 hrs by broth dilution method; settings: MTCC 4351, 24 h
Aspergillus niger [7] = assay: Antifungal activity against Aspergillus niger MTCC 282 assessed as zone of inhibition at 5 mg/ml after 24 hrs by agar well diffusion method; settings: MTCC 282, 24 h, read-out: IZ
Rattus norvegicus [8] = assay: Antiinflammatory activity in rat assessed as inhibition of carrageenan-induced paw edema administered 30 mins prior to carrageenan challenge measured after 3 hrs relative to control
Penicillium chrysogenum [9] = assay: Antifungal activity against Penicillium notatum after 48 hrs by broth dilution method
Candida tropicalis [10] = assay: Antifungal activity against Candida tropicalis MTCC 183 after 48 hrs by broth dilution method; settings: MTCC 183, 48 h
Rattus norvegicus [11] = assay: Antiinflammatory activity in rat assessed as inhibition of carrageenan-induced paw edema administered 30 mins prior to carrageenan challenge measured after 1 hr relative to control
Staphylococcus aureus [12] = assay: Antimicrobial activity against Staphylococcus aureus MTCC 3160 assessed as zone of inhibition at 5 mg/ml after 24 hrs by agar well diffusion method; settings: MTCC 3160, 24 h, read-out: IZ
Penicillium chrysogenum [13] = assay: Antifungal activity against Penicillium notatum assessed as zone of inhibition at 5 mg/ml after 24 hrs by agar well diffusion method; settings: read-out: IZ
Staphylococcus aureus [14] = assay: Antimicrobial activity against Staphylococcus aureus MTCC 3160 after 24 hrs by broth dilution method; settings: MTCC 3160, 24 h
Candida albicans [15] = assay: Antifungal activity against Candida albicans MTCC 461 after 48 hrs by broth dilution method; settings: MTCC 461, 48 h
Klebsiella pneumoniae [16] = assay: Antimicrobial activity against Klebsiella pneumoniae MTCC 3384 after 24 hrs by broth dilution method; settings: MTCC 3384, 24 h
Bacillus subtilis [17] = assay: Antimicrobial activity against Bacillus subtilis MTCC 441 after 24 hrs by broth dilution method; settings: MTCC 441, 24 h
Aspergillus niger [18] = assay: Antifungal activity against Aspergillus niger MTCC 282 after 48 hrs by broth dilution method; settings: MTCC 282, 48 h
Bacillus subtilis [19] = assay: Antimicrobial activity against Bacillus subtilis MTCC 441 assessed as zone of inhibition at 5 mg/ml after 24 hrs by agar well diffusion method; settings: MTCC 441, 24 h, read-out: IZ

Row | MIC (Escherichia coli [6]) [µg/mL] | MIC (Penicillium chrysogenum [9]) [µg/mL] | MIC (Candida tropicalis [10]) [µg/mL] | MIC (Staphylococcus aureus [14]) [µg/mL] | MIC (Candida albicans [15]) [µg/mL] | MIC (Klebsiella pneumoniae [16]) [µg/mL] | MIC (Bacillus subtilis [17]) [µg/mL] | MIC (Aspergillus niger [18]) [µg/mL] | SMILES | zone of inhibition at 5000 µg/mL (Candida albicans [1]) [mm] | inhibition (INH) (Rattus norvegicus [2]) [%] | zone of inhibition at 5000 µg/mL (Candida tropicalis [3]) [mm] | zone of inhibition at 5000 µg/mL (Klebsiella pneumoniae [4]) [mm] | zone of inhibition at 5000 µg/mL (Escherichia coli [5]) [mm] | zone of inhibition at 5000 µg/mL (Aspergillus niger [7]) [mm] | inhibition (INH) (Rattus norvegicus [8]) [%] | inhibition (INH) (Rattus norvegicus [11]) [%] | zone of inhibition at 5000 µg/mL (Staphylococcus aureus [12]) [mm] | zone of inhibition at 5000 µg/mL (Penicillium chrysogenum [13]) [mm] | zone of inhibition at 5000 µg/mL (Bacillus subtilis [19]) [mm]
1 | 25 (≈ 50.4 µM) | 12.5 (≈ 25.2 µM) | 3.12 (≈ 6.29 µM) | 12.5 (≈ 25.2 µM) | 6.25 (≈ 12.6 µM) | 12.5 (≈ 25.2 µM) | 12.5 (≈ 25.2 µM) | 6.25 (≈ 12.6 µM) | CCCn1c(-c2ccc(Cl)cc2Cl)nc2cc(C(=O)N/N=C/c3cccc([N+](=O)[O-])c3)ccc21 | 17 | 53.14 | 20 | 18 | 15 | 20 | 42.91 | 52.22 | 17 | 15 | 17
2 | 12.5 (≈ 25.2 µM) | 25 (≈ 50.4 µM) | 12.5 (≈ 25.2 µM) | 12.5 (≈ 25.2 µM) | 50 (≈ 101 µM) | 25 (≈ 50.4 µM) | 25 (≈ 50.4 µM) | 6.25 (≈ 12.6 µM) | CCCn1c(-c2ccc(Cl)cc2Cl)nc2cc(C(=O)N/N=C/c3ccc([N+](=O)[O-])cc3)ccc21 | 13 | 50.2 | 16 | 17 | 18 | 20 | 46.27 | 50 | 17 | 13 | 16

More lines, now with the values behind:

Row | SMILES | MIC (Escherichia coli [6]) [µg/mL] | MIC (Penicillium chrysogenum [9]) [µg/mL] | MIC (Candida tropicalis [10]) [µg/mL] | MIC (Staphylococcus aureus [14]) [µg/mL] | MIC (Candida albicans [15]) [µg/mL] | MIC (Klebsiella pneumoniae [16]) [µg/mL] | MIC (Bacillus subtilis [17]) [µg/mL] | MIC (Aspergillus niger [18]) [µg/mL] | zone of inhibition at 5000 µg/mL (Candida albicans [1]) [mm] | inhibition (INH) (Rattus norvegicus [2]) [%] | zone of inhibition at 5000 µg/mL (Candida tropicalis [3]) [mm] | zone of inhibition at 5000 µg/mL (Klebsiella pneumoniae [4]) [mm] | zone of inhibition at 5000 µg/mL (Escherichia coli [5]) [mm] | zone of inhibition at 5000 µg/mL (Aspergillus niger [7]) [mm] | inhibition (INH) (Rattus norvegicus [8]) [%] | inhibition (INH) (Rattus norvegicus [11]) [%] | zone of inhibition at 5000 µg/mL (Staphylococcus aureus [12]) [mm] | zone of inhibition at 5000 µg/mL (Penicillium chrysogenum [13]) [mm] | zone of inhibition at 5000 µg/mL (Bacillus subtilis [19]) [mm]
3 | CCCn1c(-c2ccc(Cl)cc2Cl)nc2cc(C(=O)N/N=C/c3ccc(C)cc3)ccc21 | 12.5 (≈ 26.9 µM) | 6.25 (≈ 13.4 µM) | 6.25 (≈ 13.4 µM) | 6.25 (≈ 13.4 µM) | 12.5 (≈ 26.9 µM) | 6.25 (≈ 13.4 µM) | 12.5 (≈ 26.9 µM) | 3.12 (≈ 6.7 µM) | 16 | 52.72 | 18 | 18 | 18 | 22 | 47.73 | 49.25 | 20 | 17 | 17
4 | CCCn1c(-c2ccc(Cl)cc2Cl)nc2cc(C(=O)N/N=C/c3ccc(N(C)C)cc3)ccc21 | 25 (≈ 50.6 µM) | 50 (≈ 101 µM) | 25 (≈ 50.6 µM) | 12.5 (≈ 25.3 µM) | 12.5 (≈ 25.3 µM) | 25 (≈ 50.6 µM) | 6.25 (≈ 12.6 µM) | 25 (≈ 50.6 µM) | 16 | 53.84 | 16 | 16 | 15 | 16 | 50.94 | 55 | 17 | 13 | 19
5 | CCCn1c(-c2ccc(Cl)cc2Cl)nc2cc(C(=O)N/N=C/c3ccc(OC)cc3)ccc21 | 12.5 (≈ 26 µM) | 50 (≈ 104 µM) | 25 (≈ 51.9 µM) | 12.5 (≈ 26 µM) | 25 (≈ 51.9 µM) | 50 (≈ 104 µM) | 50 (≈ 104 µM) | 12.5 (≈ 26 µM) | 15 | 62.23 | 16 | 14 | 17 | 18 | 64.67 | 51.11 | 17 | 12 | 10
6 | CCCn1c(-c2ccc(Cl)cc2Cl)nc2cc(C(=O)N/N=C/c3ccccc3[N+](=O)[O-])ccc21 | 12.5 (≈ 25.2 µM) | 50 (≈ 101 µM) | 25 (≈ 50.4 µM) | 25 (≈ 50.4 µM) | 50 (≈ 101 µM) | 25 (≈ 50.4 µM) | 25 (≈ 50.4 µM) | 12.5 (≈ 25.2 µM) | 14 | 51.74 | 16 | 17 | 17 | 18 | 47.44 | 46.66 | 15 | 12 | 16
7 | CCCn1c(-c2ccc(Cl)cc2Cl)nc2cc(C(=O)N/N=C/c3cccc(Cl)c3Cl)ccc21 | 12.5 (≈ 24 µM) | 50 (≈ 96.1 µM) | 25 (≈ 48.1 µM) | 12.5 (≈ 24 µM) | 12.5 (≈ 24 µM) | 12.5 (≈ 24 µM) | 25 (≈ 48.1 µM) | 6.25 (≈ 12 µM) | 16 | 49.65 | 16 | 18 | 18 | 20 | 45.1 | 53.14 | 17 | 12 | 15
